In patent US8048454B2, “Methods and compositions related to regulation of cytokine production by glycogen synthase kinase 3 (GSK-3)” (priority 2004, dated 2011):
“Also recorded” adds a separate entry of the source.

Experiments:
C57BL/6 mice [1] = assay: In vivo cytokine production in LPS-challenged mice (plasma ELISA); parameters: species or system mouse; conditions: SB216763 2 h before 150 μg LPS i.p.
Experimental: SB216763-treated mice were given 1 ml of PBS containing 30 μM of SB216763. Sham-injected and LPS groups were given 1 ml of PBS containing vehicle (0.01% DMSO). After 2 h, mice pre-treated with SB216763 (denoted LPS+SB216763) or vehicle (denoted LPS group) were given 150 μg of LPS by i.p., injection. *** indicates statistically significant differences at P<0.001, as compared to LPS-treated group. Results represent the mean±SD of 10 mice/group.
(§1) C57BL/6 mice were bred and maintained within the pathogen-free animal facility at UAB. Experimental endotoxic shock was induced in age- and sex-matched C57BL/6 mice (18 to 23 g) by intraperitoneal injection of 150 μg of LPS in PBS containing 0.1% DMSO. Mice pre-treated with the GSK-3 inhibitor SB216763 received 1 ml of PBS containing 30 μM of SB216763 (DMSO was at 0.01%) by i.p. injection. LPS-control and sham-injected mice were pre-treated (i.p. injection) with 1 ml of PBS containing 0.1% DMSO. Mice given the GSK-3 inhibitor SB216763 after LPS challenge received 1 ml of PBS containing 30 μM of SB216763 (DMSO was at 0.01%) by i.p. injection. LPS-control and sham-injected mice were administered (i.p.) 1 ml of PBS containing 0.01% DMSO. At 4 h after injection, blood from all groups of mice was obtained by retro-orbital plexus bleeding.
Human or mouse IL-1β, IL-10, IL-12 p40, and IFN-γ levels in the plasma of mice or cell-culture supernatants were determined by using enzyme-linked immunosorbent assay (ELISA) kits from R&D systems or Ebioscience according to manufacturer's instructions.

[2] = tested on: NF-κB p50, NF-κB p65, CREB; assay: Nuclear NF-κB p50, NF-κB p65 and CREB binding activity (TransAM kit); format: cell-based, human; conditions: SB216763 pre-treatment 1 h; LPS; vs LPS alone
Experimental: (§2) Human monocytes were pre-treated with medium only or 10 μM of SB216763 and then stimulated for the indicated time points with 1 μg/ml of E. coli LPS. The ability of E. coli LPS in the presence or absence of SB216763 to mediate the degradation and re-synthesis of (A) IκB-α and the phosphorylation of (B) NF-κB p65 (ser 276 or ser 536) were assessed by Western blot. […] The interaction of CBP with (F) NF-κB p65 and (G) CREB after treatment of cells with SB216763 (10 μM) were assessed by immunoprecipitation of CBP and probed for (F) NF-κB or (G) CREB levels by immunoblot. (H) To determine the functional effect of GSK-3 regulating CREB activity in LPS-stimulated monocytes, cells were pre-treated for 96 h with medium only, siRNA targeting CREB, or control siRNA and assayed by Western blot for the levels of CREB and total p38. (I, J) Monocytes pre-treated with medium only, siRNA control, or siRNA targeting CREB for 96 h were stimulated with E. coli LPS for 20 h and cell-free supernatants assayed by ELISA for the levels of (I) IL-10 and (J) IL-12 p40. To ensure equal protein loading, immunoblots were striped and re-probed with total p38 (A, B, H) or total CBP (F, G). For nuclear extract analysis of (C) NF-κB p65, (D) NF-κB p50, and (E) CREB, optical density values were normalized by loading a standardized amount of protein, as indicated in the figure. * indicates statistical significance at P<0.05. For A, B, E, F, G, H, and I, results are representative of 3 separate experiments. For C and D, results represent the mean±SD of 3 separate experiments.
Human monocytes in 24-well polystyrene tissue culture plates were pretreated for 1 h with SB216763 or 0.01% DMSO and then incubated with medium alone or LPS for the indicated time points. Cells were collected, washed two times in PBS, and then assayed for activity using the TransAM kit specific for the given transcription factor (Active Motif, Carlsbad, Calif.). […]

human CD4+ T cells = assay: Cytokine production by anti-CD3 stimulated purified CD4+ T cells (ELISA); format: cell-based; conditions: plate-bound anti-CD3 10 μg/ml, 72 h
Experimental: Supernatants were analyzed for […] (IFN-γ) and Th2- (IL-10) type cytokines by ELISA. […] Thus, inhibition of GSK-3 at the T cell level also suppresses inflammatory cytokines while increasing anti-inflammatory cytokine production. Moreover, inhibition of GSK-3 can enhance Th2-type immune responses while suppressing Th1-type responses.

NF-κB = assay: IκB-α degradation and NF-κB p65 phosphorylation, Western blot, LPS-stimulated monocytes; format: cell-based, human; conditions: 10 μM SB216763, 1 μg/ml E. coli LPS
Experimental: (§3) Human monocytes were pre-treated with medium only or 10 μM of SB216763 and then stimulated for the indicated time points with 1 μg/ml of E. coli LPS. The ability of E. coli LPS in the presence or absence of SB216763 to mediate the degradation and re-synthesis of (A) IκB-α and the phosphorylation of (B) NF-κB p65 (ser 276 or ser 536) were assessed by Western blot. […] The interaction of CBP with (F) NF-κB p65 and (G) CREB after treatment of cells with SB216763 (10 μM) were assessed by immunoprecipitation of CBP and probed for (F) NF-κB or (G) CREB levels by immunoblot. […]
To investigate the underlying cellular mechanism responsible for the ability of GSK-3 inhibition to suppress the production of pro-inflammatory cytokines while concurrently augmenting the production of the anti-inflammatory cytokine IL-10, the ability of how GSK-3 influenced the activation of downstream transcription factors involved in the inflammatory response was assessed. […] Since GSK-3 can mediate the phosphorylation of the p65 subunit of NF-κB, it was next determined if GSK-3 inhibition was exerting an effect on the phosphorylation status of the p65 subunit of NF-κB. […] Therefore, the nuclear levels of the NF-κB subunits p50 and p65 were analyzed in the presence or absence of the GSK-3 inhibitor SB216763 (FIG. 9C, D). […]

human monocytes = assay: Cytokine production by E. coli LPS-stimulated monocytes (ELISA); format: cell-based
Experimental: FIG. 2 The ability of the PI3K pathway to differentially modulate the levels of pro- and anti-inflammatory cytokines is mediated by inhibition of GSK-3. Human monocytes were pre-incubated with medium only, 10 μM SB216763, 10 mM LiCl, 200 nM Azakenpaullone, BIO (50 nM), 1 μM Akt-i, or 20 μM LY294002 for 1 h and then stimulated with 1 μg/ml of E. coli LPS for 20 h. Cell-free supernatants were collected and assessed for (A, C) IL-10, (B, D) IL-12 p40, (E) TNF-α, or (F) IL-6 production by ELISA. * and *** indicates significant differences (P<0.05 and P<0.001, respectively) compared to E. coli LPS stimulated cultures. Results represent the mean±SD of 5 separate experiments.
(A) Monocytes were pre-treated for 96 h with medium, siRNA targeting GSK-3β, or control siRNA and assayed by Western blot for the levels of total GSK-3β and total p38. (B, C) Monocytes were pre-treated with medium only, siRNA control, or siRNA targeting GSK-3β for 96 h, stimulated with E. coli LPS for 20 h, and cell-free supernatants assayed by ELISA for the levels of (B) IL-10 and (C) IL-12 p40. * indicates significant differences (P<0.05) compared to LPS stimulated cultures. Results represent the mean±SD of 3 separate experiments.
as §2, with “For nuclear extract analysis of (C) NF-κB p65, (D) NF-κB p50, and (E) CREB, optical density values were normalized by loading a standardized amount of protein, as indicated in the figure. * indicates statistical significance at P<0.05. For A, B, E, F, G, H, and I, results are representative of 3 separate experiments. For C and D, results represent the mean±SD of 3 separate experiments.” left out
Human or mouse IL-1β, IL-10, IL-12 p40, and IFN-γ levels in the plasma of mice or cell-culture supernatants were determined by using enzyme-linked immunosorbent assay (ELISA) kits from R&D systems or Ebioscience according to manufacturer's instructions. […]

C57BL/6 mice [3] = assay: Endotoxin shock model, survival after LD100 of LPS; format: in vivo, mouse
Experimental: Mice (sham-injected and LPS groups) were pre-treated with i.p. injection of 1 ml PBS containing 0.01% DMSO (vehicle control). SB216763-treated mice were administered 1 ml of PBS containing 30 μM of SB216763. After 2 h, mice pre-treated with SB216763 (denoted LPS+SB216763) or vehicle (denoted LPS group) were given 150 μg of LPS by i.p., injection. ** and *** indicate statistically significant differences at P<0.01 and P<0.001, respectively, as compared to LPS-treated group. Results represent the mean of 30 mice/group.
as §1
Male C57BL/6 mice (8 to 12 weeks of age; 18 to 23 g) were injected via the intraperitoneal route with an LD100 ([…]) of E. coli K235 LPS in 200 µl of PBS containing 0.1% DMSO. Mice were monitored over a 10 day period for survivability.

CBP = assay: Co-immunoprecipitation of CBP with NF-κB p65 and CREB; format: cell-based, human; conditions: SB216763 10 μM; LPS-stimulated monocytes
Experimental: as §3, with “immunoblot. (H) To determine the functional effect of GSK-3 regulating CREB activity in LPS-stimulated monocytes, cells were pre-treated for 96 h with medium only, siRNA targeting CREB, or control siRNA and assayed by Western blot for the levels of CREB and total p38.” for “immunoblot.”
Moreover, it has been shown that GSK-3 can negatively regulate the activation and nuclear binding properties of CREB. Therefore, it was next determined how GSK-3 inhibition was regulating the ability of nuclear CREB (ser133) to bind its consensus sequence (FIG. 9E). […] Since the levels of CREB binding activity were augmented by GSK-3 inhibition, it was determined if GSK-3 inhibition was affecting the ability of CREB (ser133) and NF-κ p65 (ser276) to associate with CBP by co-immunoprecipitation (FIG. 9F, G).

Cn1cc(C2=C(c3ccc(Cl)cc3Cl)C(=O)NC2=O)c2ccccc21 [SB216763]
reduction of systemic levels of several pro-inflammatory cytokines (C57BL/6 mice [1]; IL-1β, IL-12 p40, IFN-γ, vs LPS-treated controls): more than 50% | in vivo (systemic) levels of IL-1β, IL-12 and IFN-γ (in words) (C57BL/6 mice [1]): suppresses; also recorded: profound decrease | in vivo levels of IL-10 (in words) (C57BL/6 mice [1]): enhanced | increase of in vivo production of IL-10 (C57BL/6 mice [1]; vs LPS-treated controls): more than 2 fold | DNA-binding properties of CREB [2]: significant increase | nuclear levels of NF-κB p50 able to bind its consensus sequence [2]: did not appear to be influenced | nuclear levels of NF-κB p65 able to bind its consensus sequence [2]: did not appear to be influenced | levels of IL-10 (human CD4+ T cells): significantly enhanced | production of IFN-γ (human CD4+ T cells): suppress | rate or extent of degradation or re-synthesis of IκB-α protein (NF-κB): failed to alter | level and duration of p65 phosphorylation (ser276 or ser536) (NF-κB; vs LPS alone): Neither the level nor duration | IL-10 levels compared to E. coli LPS-treated monocytes (in words) (human monocytes; inhibitor pre-incubation 1 h, 1 μg/ml E. coli LPS 20 h): approximate three-fold increase | reduction in IL-12 p40 levels (human monocytes; inhibitor pre-incubation 1 h, 1 μg/ml E. coli LPS 20 h, vs LPS alone): ~80% | level of IL-12 p40 in cultures pre-treated with siRNA against CREB (in words) (human monocytes; siRNA against CREB 96 h plus SB216763, LPS): did not appear to be altered | IL-10 levels in cells pretreated with siRNA targeting CREB (in words) (human monocytes; siRNA targeting CREB 96 h plus SB216763, LPS, vs LPS stimulated controls): did not exhibit any discernible increase | LPS (endotoxin) lethality (in words) (C57BL/6 mice [3]; given 2 h before or 2 h after LD100 of LPS): mediates protection; also recorded: severe attenuation | mice survived (C57BL/6 mice [3]; given 2 hours after LD100 of LPS, 1 ml PBS with 30 μM i.p., 0% in control-treated mice): approximately 55% | mice protected from death (C57BL/6 mice [3]; given 2 hours before LD100 of LPS, 1 ml PBS with 30 μM i.p., 0% in control-treated mice): greater than 70% | late deaths among survivors (C57BL/6 mice [3]; monitored over a 10-day period, both treatment groups): no late deaths | levels of CREB bound to CBP (CBP): potently augmented | levels of p65 associated with CBP (CBP): pronounced decrease
